Test results taken from ChEMBL document CHEMBL1641367, “Antioxidant, anti-inflammatory and anti-hyperglycaemic activities of heterocyclic homoprostanoid derivatives” (2011).
Blank lines part the entries; values can stand above or below the compound they belong to. Activity calls are given as the source filed them. The calls are words filed in the database; no cut-off is given here.

Assays:
Serum [1] = assay: Antiinflammatory activity in bovine serum assessed as denaturation of albumin at 5 mM after 10 mins by spectrophotometry; assay type: functional; conditions: Bos taurus
Serum [2] = assay: Antiinflammatory activity in bovine serum assessed as denaturation of albumin at 1 mM after 10 mins by spectrophotometry; assay type: functional; conditions: Bos taurus
Rattus norvegicus [3] = assay: Antiinflammatory activity in rat assessed as inhibition of carrageenan-induced hind paw edema at 100 mg/kg, po measured after 3 hrs of carrageenan challenge; assay type: functional
[4] = target: Dipeptidyl peptidase 4 (Homo sapiens) (UniProt P27487); assay: Inhibition of DPP4 at 500 ug/ml after 30 mins by spectrophotometry
Rattus norvegicus [5] = assay: Antiinflammatory activity in rat assessed as inhibition of complete Freund's adjuvant-induced paw swelling at 100 mg/kg, po administered on day 21 post induction of inflammation measured on day 35; assay type: functional
Mus musculus [6] = assay: Antihyperglycemic activity in mouse assessed as decrease in blood glucose AUC level at 100 mg/kg, po administered before glucose challenge measured after 120 mins post glucose infusion; assay type: functional, organism-based; parameters: dose 100 mg/kg
Mus musculus [7] = assay: Antihyperglycemic activity in mouse assessed as decrease in blood glucose AUC level at 100 mg/kg, ip administered before glucose challenge measured after 120 mins post glucose infusion; assay type: functional; conditions: 2 h, route intraperitoneal
Serum [8] = assay: Antiinflammatory activity in bovine serum assessed as denaturation of albumin at 0.25 mM after 10 mins by spectrophotometry; assay type: functional; conditions: Bos taurus
Serum [9] = assay: Antiinflammatory activity in bovine serum assessed as denaturation of albumin at 0.01 mM after 10 mins by spectrophotometry; assay type: functional; conditions: Bos taurus
Rattus norvegicus [10] = assay: Antiinflammatory activity in rat assessed as inhibition of complete Freund's adjuvant-induced paw swelling at 5 mg/kg, po administered on day 21 post induction of inflammation measured on day 35; assay type: functional

Sequence of Dipeptidyl peptidase 4 (Homo sapiens) (P27487 whole entry, looked up): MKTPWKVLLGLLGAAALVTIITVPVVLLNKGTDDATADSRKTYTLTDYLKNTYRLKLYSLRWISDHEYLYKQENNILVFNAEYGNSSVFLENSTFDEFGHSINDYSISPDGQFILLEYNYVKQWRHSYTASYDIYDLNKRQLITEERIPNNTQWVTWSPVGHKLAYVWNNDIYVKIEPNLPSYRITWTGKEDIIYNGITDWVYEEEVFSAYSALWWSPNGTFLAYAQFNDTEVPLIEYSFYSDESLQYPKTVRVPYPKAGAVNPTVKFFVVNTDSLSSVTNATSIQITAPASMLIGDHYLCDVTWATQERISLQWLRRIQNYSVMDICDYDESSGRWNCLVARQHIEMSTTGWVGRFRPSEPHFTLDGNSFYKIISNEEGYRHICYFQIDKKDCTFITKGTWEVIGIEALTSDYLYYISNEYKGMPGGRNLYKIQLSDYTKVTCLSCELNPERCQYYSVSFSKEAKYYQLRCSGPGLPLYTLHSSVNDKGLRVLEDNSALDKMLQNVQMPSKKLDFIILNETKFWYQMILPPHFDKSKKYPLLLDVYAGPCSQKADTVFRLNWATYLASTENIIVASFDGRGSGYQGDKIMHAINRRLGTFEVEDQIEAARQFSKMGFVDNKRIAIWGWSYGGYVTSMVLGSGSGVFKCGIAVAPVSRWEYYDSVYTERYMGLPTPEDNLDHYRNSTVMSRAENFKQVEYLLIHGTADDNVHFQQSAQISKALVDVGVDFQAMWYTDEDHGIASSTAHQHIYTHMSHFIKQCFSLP

SMILES: CCCCCCC(CC1OC(C)(C)OC1CCCCCCCC(=O)OC)OC(C)=O (stereo unspecified)
inhibition at 5000 µM (Serum [1]): 48.5%

inhibition [4]: 45.5%
SMILES: CCCCCCCCc1nc2ccc(Cl)cc2nc1CCCCCCCC(=O)O
inhibition at 1000 µM (Serum [2]): 57.1%
inhibition in vivo at 100 mg/kg (Rattus norvegicus [3]): 26.7%
inhibition in vivo at 100 mg/kg (Rattus norvegicus [5]): 44.2%
inhibition (Mus musculus [6]): inactive
inhibition in vivo at 100 mg/kg (Mus musculus [7]): 36.7%

SMILES: CCCCCCCCc1nc2ccccc2nc1CCCCCCCC(=O)NN
inhibition at 1000 µM (Serum [2]): 3.72%

inhibition [4]: -6.22%
SMILES: CCCCCCCCC1=NC(=O)N=C1CCCCCCCC(=O)OCCO[N+](=O)[O-]
inhibition at 1000 µM (Serum [2]): 25.1%
inhibition in vivo at 100 mg/kg (Rattus norvegicus [3]): -22.8%

inhibition [4]: 12.3%
SMILES: CCCCCCCCC1=NC(=O)CC(=O)N=C1CCCCCCCC(=O)O
inhibition at 250 µM (Serum [8]): 37%
inhibition in vivo at 100 mg/kg (Rattus norvegicus [3]): 1.74%

SMILES: CCCCCCCCC1=NC(=O)N=C1CCCCCCCC(=O)O
inhibition at 1000 µM (Serum [2]): 76.7%
inhibition in vivo at 100 mg/kg (Rattus norvegicus [3]): -12.9%

SMILES: CCCCCCCCC1=NC(=O)N=C1CCCCCCCC(=O)NN
inhibition at 1000 µM (Serum [2]): 31.4%

SMILES: CCCCCCCCC1=NC(=O)N=C1CCCCCCCC(=O)NN1C(=O)CSC1c1ccc(Cl)cc1 (stereo unspecified)
inhibition in vivo at 100 mg/kg (Rattus norvegicus [3]): 0%

SMILES: CCCCCCCCC1=NC(=S)N=C1CCCCCCCC(=O)O
inhibition at 1000 µM (Serum [2]): 78.3%
inhibition in vivo at 100 mg/kg (Rattus norvegicus [3]): -7.17%

inhibition [4]: 23.3%
SMILES: CCCCCCCCC1=NC(=S)N=C1CCCCCCCC(=O)OCCO[N+](=O)[O-]
inhibition at 10 µM (Serum [9]): 38.1%
inhibition in vivo at 100 mg/kg (Rattus norvegicus [3]): -22.4%

SMILES: O=C(O)Cc1ccccc1Nc1c(Cl)cccc1Cl [DICLOFENAC]
inhibition at 5000 µM (Serum [1]): 56.3%
inhibition in vivo at 100 mg/kg (Rattus norvegicus [3]): 38.2%
inhibition in vivo at 5 mg/kg (Rattus norvegicus [10]): 35.3%

inhibition [4]: 2.2%
SMILES: CCCCCCCCc1nonc1CCCCCCCC(=O)O
inhibition at 5000 µM (Serum [1]): 25.4%

SMILES: CCCCCCCCC1OC(C)(C)OC1CCCCCCCC(=O)OCC (stereo unspecified)
inhibition at 5000 µM (Serum [1]): 46.4%

inhibition [4]: 73.6%
SMILES: CCCCCCCCc1nc2ccccc2nc1CCCCCCCC(=O)O
inhibition at 1000 µM (Serum [2]): 75.7%
inhibition in vivo at 100 mg/kg (Rattus norvegicus [3]): 34.4%

SMILES: CCCCCCCCC1=NC(=S)N=C1CCCCCCCC(=O)NN
inhibition at 10 µM (Serum [9]): 37.2%

SMILES: CCCCCCCCC1=NC(=S)N=C1CCCCCCCC(=O)NN1C(=O)CSC1c1ccc(Cl)cc1 (stereo unspecified)
inhibition in vivo at 100 mg/kg (Rattus norvegicus [3]): -21.7%

inhibition [4]: 58.3%
SMILES: CCCCCCCCc1nc(=S)[nH]nc1CCCCCCCC(=O)O
inhibition at 250 µM (Serum [8]): 14%
inhibition in vivo at 100 mg/kg (Rattus norvegicus [3]): -3.82%

inhibition [4]: 64%
SMILES: CCCCCCCCc1nc2ccc([N+](=O)[O-])cc2nc1CCCCCCCC(=O)O
inhibition at 1000 µM (Serum [2]): 36.9%
inhibition in vivo at 100 mg/kg (Rattus norvegicus [3]): 39.6%
inhibition in vivo at 100 mg/kg (Rattus norvegicus [5]): 53.3%
inhibition (Mus musculus [6]): inactive
inhibition in vivo at 100 mg/kg (Mus musculus [7]): 45.1%

inhibition [4]: 88.1%
SMILES: CCCCCCCCc1nc2ccc(C)cc2nc1CCCCCCCC(=O)O
inhibition at 1000 µM (Serum [2]): 37.4%
inhibition in vivo at 100 mg/kg (Rattus norvegicus [3]): 12.5%
